Source: US5552156A, “Liposomal and micellular stabilization of camptothecin drugs” (Ohio State University, priority 1995, dated 1996)
Counter-ions that a name gives are not always drawn. Blank lines part the entries; values can stand above or below the compound they belong to.

Legend:
Format in all cases: physicochemical
[1] = Steady-state fluorescence anisotropy in solvents and liposomes; settings: for steady-state anisotropy (a), DMPC: DMPC liposomes
Experimental: (§1) Steady-state fluorescence measurements were obtained on a SLM Model 4800C. spectrofluorometer with a thermostated cuvette compartment. This instrument was interfaced with an IBM PS/2 model 55 SX computer. Excitation and emission spectra were recorded with an excitation resolution of 8 nm and an emission resolution of 4 nm. In all cases spectra were corrected for background fluorescence and scatter from unlabeled lipids or from solvents by subtraction of the spectrum of a blank. Steady-state fluorescence intensity measurements were made in the absence of polarizer. Steady-state anisotropy (a) measurements were determined with the instrument in the "T-format" for simultaneous measurement of two polarized intensities. The alignment of polarizers were checked routinely using a dilute suspension of 0.25 μm polystyrene microspheres from Polysciences, Inc, Warrington, Pa., in water; anisotropy values of >0.99 were obtained. The anisotropy was calculated from a=(Ivv -GlVH)/(Ivv +GIVH), where G-IVH /IHH and the subscripts refer to vertical and horizontal orientations of the excitation and emission polarizers, respectively.
(§2) Anisotropy measurements for camptothecin, camptothecin carboxylate sodium salt, and 10,11-methylenedioxycamptothecin were conducted using exciting light of 370 nm and 420 nm long wave pass filters on each emission channel in order to isolate the fluorescence signal from background scatter and signal. For topotecan a 400 nm excitation wavelength and a 500 nm emission filter were used and for 9-aminocamptothecin a 375 nm excitation and a wavelength 420 nm emission filter were used. For AMC and CMC, a 370 nm excitation wavelength and a 400 nm emission filter were used. For 10-hydroxycamptothecin 375 nm excitation wavelength 500 nm emission filter was used. Emission filters were obtained from Oriel Corp. Stamford, Conn. The combination of exciting light and emission filters allows one to adequately separate the fluorescence from the background signal. The contribution of background fluorescence, together with scattered light, was typically less than 1% of the total intensity. Since the lactone ring of the camptothecin drug undergoes hydrolysis in aqueous medium, all measurements were completed within the shortest possible time, less than 1 minute after mixing the drug stock solution with PBS or the liposomes. In each case, analysis was initiated immediately after mixing the drug stock solution with PBS or with the liposomes. All measurements were performed at 37° C. unless otherwise noted.
(§3) While the spectral changes provide qualitative evidence that the camptothecin drugs bind the liposome membranes, fluorescence anisotropy titration, offers the most sensitive means for quantitatively assessing the extent of the binding. The fluorescence anisotropy titration was performed according to the method of Burke and Tritton, Biochemistry 24: 1768-1776 (1985).
A steady-state fluorescence anisotropy (a) measurement is related to the rotational rate of the fluorescent molecule through the Perrin Equation: […]
where a0 is the limiting fluorescence anisotropy value, that is, the anisotropy value in the absence of depolarizing rotations, T is the excited-state lifetime, and .phi. is the rotational correlative time of the fluorophore. According to Equation 1, changes in either the T or .phi. values of a fluorescent compound can modulate its steady-state anisotropy.
The limiting fluorescence anisotropy (a0) values were also measured. The maximum values of (a) were obtained by dissolving the camptothecin drugs in the viscous solvent glycerol and cooling the samples to low temperatures. Steady-stated anisotropy (a) values were determined for samples containing 1 μM drug at 37° C.
Where the solvent viscosity is high and temperature is low, depolarizing rotations are at a minimum. By extrapolating these (a) values to -25° C., the limiting anisotropy values (a0) for the camptothecin drugs, were determined. […]

[2] = HPLC assay of lactone ring hydrolysis, free in PBS or associated with liposomes or micelles; settings: for carboxylate/lactone ratio (C/L) free drug: final equilibrium; for carboxylate/lactone ratio (C/L) free drug / t1/2 free drug: free in PBS, pH 7.4, 37° C.; for t1/2 free drug: lactone hydrolysis
Experimental: A high performance liquid chromatography assay was used to determine the rate of hydrolysis of camptothecin and topotecan free in aqueous solution and to compare such rates with the rate of hydrolysis for the same drugs when bound to the DMPG and DMPC liposome membranes. The assay was conducted under near physiological conditions; the pH was 7.4, the temperature was 37° C. and the ionic strength was physiological. A Spectroflow model 980 fluorescence detector coupled to an HP 3392A integrator which acquired and processed the chromatograms, was used. For camptothecin, an Ultrasphere ODS C-18 250 mm long column was used. The mobile phase consisted of 32% acetonitrile, 67% 0.1M acetate buffer, pH 5.5, and 1% 01.M sodium dodecylsulfate at a flow rate of 1 mL/min. The detector was set to 370 nm excitation wavelength and a 418 nm long pass emission filter. A 1 μM solution of camptothecin in PBS was prepared and incubated at 37° C. Immediately after mixing the drug stock solution with PBS and at intervals of 5 min thereafter, 50 μL aliquots were taken out and mixed with 150 μL methanolic internal standard, 9-toluoylamidocamptothecin and either analyzed immediately or kept cold under dry ice. 150 μL of this mixture was diluted with 125 μL water and 200 μL was injected. The ratio of the peak areas corresponding to the intact lactone form of the camptothecin drug and the internal standard at a particular time was normalized to that at the time of mixing and was considered as the concentration of the intact lactone form.
For topotecan the excitation wavelength was 362 nm and the emission was observed through a 470 long wave pass filter. The stationary phase was Waters Nova-Pak C-18 150mm long column. The mobile phase consisted of 500 mL 0.1M KH2 PO4, 550 mL acetonitrile, 4.2 mL triethylamine (distilled over molecular sieves), 4.44 g sodium dioctylsulfosuccinate (DOSS), and 970 ml water. The pH was adjusted to 6.0 with H3 PO4. Internal standard solution contained 50×10^-9 g acridine from Eastman and 20×10^-3 M DOSS in methanol and was always kept cold at ≤-20° C. Next 150 μL or cold internal standard solution was mixed with 50 μL aliquot containing topotecan, centrifuged for 1 minute and the supernatant was either analyzed immediately or stored at -20° C. for analysis at a later time, within 2 hours. Samples were monitored at time points from 0 minutes, that is, immediately following dissolution, up to 72 hours.
The kinetics of lactone ring hydrolysis for free camptothecin, CMC and topotecan are shown in of FIGS. 7a, 7b and 7c. Analysis of the decay profile for camptothecin, CMC and topotecan free in PBS was accomplished using a nonlinear least squares program.

[3] = Fluorescence excitation and emission spectra of camptothecin drugs free in solution and bound to liposomes
Text: The camptothecin drugs are intrinsically intensely fluorescent. Fluorescence is associated with the extended conjugation of the quinoline ring system. The liposomes of Examples 1-7 were characterized for the presence of the camptothecin drugs, using excitation and emission spectrography, and fluorescence anisotropy.
as §1, §2
The relative fluorescence intensity of 1×10^-6 M of camptothecin free in PBS buffer at 37° C. is shown. The emission spectra of the camptothecin was recorded using exciting light of 370 nm.
An exciting light of 390 nm was used to record the emission spectra of topotecan. A decrease in the emission intensity is observed for topotecan associated with the DMPG liposome.
All spectra were recorded using camptothecin drug concentrations of 2
μM. The DMPC and DMPG concentrations were 0.29 M. Experiments were
conducted in PBS buffer at 37° C.
Also found in Table II is a relative index of the emission intensity levels from these camptothecin drugs in PBS at their respective excitation and emission λMAX.

[4] = Overall association constant by fluorescence anisotropy titration, DMPC liposomes
Experimental: as §3
The concentrations of free camptothecin drugs and camptothecin drugs associated with liposomes were determined at various lipid concentrations. All experiments were conducted in glass tubes pretreated with a silating agent, Surfacil, from Pearce Chemical, Rockford, Ill. The titration was conducted at camptothecin drug concentration of 1×10^-6 M in PBS at 37° C. Anisotropy values at each lipid concentration were determined within less than 30 seconds following the addition of the camptothecin drugs to the liposome suspension. The (a) values were determined for fixed drug concentration, typically 2 μM, while the lipid concentration was varied from 0 to 0.29M. By varying the lipid concentration rather than varying the drug concentration, the problem of self-association phenomenon which occurs for camptothecin drugs concentrations in excess of 10 μM is avoided. Also, the well-known phenomenon known as inner filter effect which occurs using fluorescent material at high optical densities is a is avoided.
Adsorption isotherms like those shown in FIGS. 4A and 4B were used to determine overall association constants for the camptothecin drugs. Overall association constants are defined as: […]
where [AB ] represents the concentration of the camptothecin drug bound to the vesicle membrane, [AF ] represents the concentration of free drug, and [L] represents the total lipid concentration in the liposome suspension. This equation is valid when the concentration of free lipid is approximately equal to the concentration of total lipid, that is, the concentration of free lipid is in great excess over the concentration of bound drug. Provided this concentration is satisfied, K may be determined from the inverse of the slope of a double reciprocal plot according to (Burke and Tritton, Biochemistry 24:1776, 1985). In such a plot, 1/bound fraction of the total camptothecin drug is plotted vs. 1/[lipid], with a y-intercept value of 1.
FIG. 6A is the double-reciprocal plot for the associations of CMC, camptothecin, camptothecin carboylate sodium salt and topotecan with DMPC at 37° C.
The stabilization of camptothecin drugs was determined using different lipids. Three types of lipids (and thus 3 types of membranes) were examined: fluid-phase and electroneutral L-α-dimyristoylphosphatidylcholine (DMPC); fluid-phase and negatively-charged L-α-dimyristoylphosphatidylglycerol (DMPG), and solid-phase and electroneutral L-α-distearoylphosphatidylcholine (DSPC). While DMPC and DMPG have identical chain length, the charge on their head groups differ. DMPC and DSPC have identical head groups, but DMPC has acyl chains having 14 carbons per chain, which are four carbons shorter than the DSPC, which has 18 carbons per chain. This difference of 4-carbon chain length results in DMPC being fluid-phase at 37° C. while DSPC is solid-phase. The 7 camptothecin drugs listed in Table III were combined with liposomes containing the above lipids.
FIGS. 4A and 4B show the extent of camptothecin drug binding to liposomes as a function of lipid concentration for DMPC and DMPG liposomes. DMPC liposomes were made as in Example 1, at lipid concentrations from 0 to 0.29M, using CMC, 10-hydroxycamptothecin, 10,11-methylenedioxy-camptothecin, topotecan, camptothecin, and camptothecin carboxylate sodium salt, as shown in FIG. 4B. DMPG liposomes were made as in Example 2, at lipid concentrations from 0 to 0.29M, using 9-chloro-10,11-methylenedioxycamptothecin CMC, 10,11-methylenedioxycamptothecin, camptothecin, and topotecan, 9-aminocamptothecin, as shown in FIG. 4A. […]

[5] = in PBS, pH 7.4, at excitation and emission λMAX

Structure (SMILES): CCC1(O)C(=O)OCc2c1cc1n(c2=O)Cc2cc3c(N)c4c(cc3nc2-1)OCO4 (centres unmarked) [9-amino-10,11-methylenedioxycamptothecin]
steady-state anisotropy (a), DMPC ([1]; pH 2, 37° C.): 0.160
steady-state anisotropy (a), PBS ([1]; pH 3, 37° C.): 0.049
lactone hydrolysis when associated with liposomes ([2]; DMPC and DMPG liposomes): some hydrolysis occurred at 1 hour
lactone ring hydrolysis at 5 hours ([2]; DMPG or DMPC liposomes, 5 hours): ≤ 40%
carboxylate/lactone ratio (C/L) free drug [2]: 5.1
t1/2 free drug [2]: 26.9 min
emission maxima as the pH is decreased ([3]; 2 μM, excitation 370 nm, decreased pH): 430 nm
shift of emission maxima upon decrease of pH / protonation ([3]; free in PBS): about 120 nm
λMAX emission, PBS ([3]; free in PBS, pH 7.4, 37° C.): 550 nm
Relative Fluorescence [3, 5]: 0.001
λMAX excitation ([3]; pH 1.5): 373 nm
Relative Fluorescence ([3]; pH 1.5, PBS): 0.06
λMAX emission, PBS ([3]; pH 1.5, free in PBS): 430 nm
λMAX excitation ([3]; pH 7.4, 2 μM drug, PBS, 37° C.): 404 nm

carboxylate/lactone ratio (C/L) free drug [2]: 7.5
t1/2 free drug [2]: 23.8 min
reduction in emission intensity levels relative to camptothecin ([3]; free in PBS, pH 7.4): 1000 -fold
λMAX emission, PBS ([3]; free in PBS, pH 7.4, 37° C.): 456 nm
Relative Fluorescence [3, 5]: 0.001
λMAX excitation ([3]; pH 7.4, 2 μM drug, PBS, 37° C.): 378 nm
Structure (SMILES): CCC1(O)C(=O)OCc2c1cc1n(c2=O)Cc2cc3c([N+](=O)[O-])cccc3nc2-1 (centres unmarked) [9-nitrocamptothecin]

Structure (SMILES): CCC(O)(C(=O)O)c1cc2n(c(=O)c1CO)Cc1cc3ccccc3nc1-2 (centres unmarked) [camptothecin carboxylate, camptothecin carboxylate sodium salt]
steady-state anisotropy (a), DMPC ([1]; 37° C., 1/a vs. 1/[lipid] plot): 0.102
steady-state anisotropy (a), PBS ([1]; 1 μM drug, 37° C.): 0.008
limiting fluorescence anisotropy a0 ([1]; extrapolated to -25° C., glycerol): 0.377
steady-state anisotropy (a), glycerol ([1]; glycerol, 1 μM drug, 37° C.): 0.327
steady-state anisotropy (a), octanol ([1]; octanol, 1 μM drug, 37° C.): 0.073
overall association constant K, DMPC ([4]; DMPC (electroneutral, fluid phase), PBS, 37° C.): 40 M⁻¹
reduction in binding to DMPC liposomes upon hydrolysis to carboxylate ([4]; relative to camptothecin): three-fold reduction
λMAX emission, DMPC ([3]; DMPC liposomes 0.29 M, pH 7.4, 37° C.): 437 nm
λMAX emission, DMPG ([3]; DMPG liposomes 0.29 M, pH 7.4, 37° C.): 435 nm
λMAX emission, PBS ([3]; free in PBS, pH 7.4, 37° C.): 443 nm
Relative Fluorescence [3, 5]: 1
λMAX excitation ([3]; pH 7.4, 2 μM drug, PBS, 37° C.): 377 nm
